# Source: US20110044938A1 (NYCOMED GMBH, priority 2006, published 2011)
# What was measured:
# [1] = tested on: RKO (RKOp27) human colon adenocarcinoma cells; assay: Alamar Blue cell viability assay, anti-proliferative/cytotoxic activity on proliferating RKO subclones; format: cell-based; settings: RKOp27, 72 h, RKO p27 uninduced (proliferating) cells, value = class bound given in Table A, read-out: −logIC50 RKO p27 uninduced (proliferating) (converted)
# In short: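 Alamar Blue fluorescence (ex 544, em 590 nm) after 72 h compound exposure at 37 °C, 5% CO2, normalised to untreated controls set at 100%. Cells were seeded at 5000 per well and dosed 24 h later with serial semi-logarithmic dilutions in 10% FCS DMEM, four replicates each. −log IC50 [mol/l] was derived from concentration-effect curves.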
# [2] = tested on: subclones of RKO colon adenocarcinoma cells (RKOp27 or RKOp21) arrested by Ponasterone A; assay: Alamar Blue cell viability assay, cell cycle specific mode of action: cells arrested by ectopic p27Kip1 induced by Ponasterone A versus proliferating cells; format: cell-based; settings: Homo sapiens, RKO p27 induced (arrested) cells, 10 μM Ponasterone A, 72 hours, value = class bound given in Table A, read-out: −logIC50 RKO p27 induced (arrested) (converted)
# In short: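 Viability of proliferating versus Ponasterone A (10 μM)-arrested RKOp27/RKOp21 cells after 72 h compound exposure at 37° C, in quadruplicate. Read-out is Alamar Blue fluorescence (544/590 nm) normalised to untreated cells = 100%; values as −log IC50.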
IC50 [2] [nM],Compound,IC50 [1] [nM]
≥ 100000,"CN(C)C(=O)OCC1CCc2c(sc(NC(=O)/C=C/c3cccnc3)c2C#N)C1 (stereo not shown) [Example 74, Dimethyl-carbamic acid 3-cyano-2-((E)-3-pyridin-3-yl-allanoylamino)-4,5,6,7-tetrahydro-benzo[b]thiophen-6-ylmethyl ester]",≤ 501
≥ 100000,"CN(C)C(=O)OC[C@@H]1CCc2c(sc(NC(=O)/C=C/c3cccnc3)c2C#N)C1 [Example 74b, Dimethyl-carbamic acid (R)-3-cyano-2-((E)-3-pyridin-3-yl-allanoylamino)-4,5,6,7-tetrahydro-benzo[b]thiophen-6-ylmethyl ester]",≤ 501
≥ 100000,"N#Cc1c(NC(=O)/C=C/c2cccnc2)sc2c1CCC(OC(=O)N1CCC(O)C1)C2 (stereo not shown) [Example 76, 3-Hydroxy-pyrrolidine-1-carboxylic acid 3-cyano-2-((E)-3-pyridin-3-yl-allanoylamino)-4,5,6,7-tetrahydro-benzo[b]thiophen-6-yl ester]",≤ 501
≥ 100000,"N#Cc1c(NC(=O)/C=C/c2cccnc2)sc2c1CCC(COC(=O)N1CCC1)C2 (stereo not shown) [Example 79, Azetidine-1-carboxylic acid 3-cyano-2-((E)-3-pyridin-3-yl-allanoylamino)-4,5,6,7-tetrahydro-benzo[b]thiophen-6-ylmethyl ester]",501 to 2000
≥ 100000,"CCN(CC)C(=O)OCC1CCc2c(sc(NC(=O)/C=C/c3cccnc3)c2C#N)C1 (stereo not shown) [Example 82, Diethyl-carbamic acid 3-cyano-2-((E)-3-pyridin-3-yl-allanoylamino)-4,5,6,7-tetrahydro-benzo[b]thiophen-6-ylmethyl ester]",≤ 501
≥ 100000,"N#Cc1c(NC(=O)/C=C/c2cccnc2)sc2c1CCC(COC(=O)N1CCCCC1)C2 (stereo not shown) [Example 83, Piperidine-1-carboxylic acid 3-cyano-2-((E)-3-pyridin-3-yl-allanoylamino)-4,5,6,7-tetrahydro-benzo[b]thiophen-6-ylmethyl ester]",≤ 501
≥ 100000,"N#Cc1c(NC(=O)/C=C/c2cccnc2)sc2c1CCC(COC(=O)N1CCCC(O)C1)C2 (stereo not shown) [Example 87, 3-Hydroxy-piperidine-1-carboxylic acid 3-cyano-2-((E)-3-pyridin-3-yl-allanoylamino)-4,5,6,7-tetrahydro-benzo[b]thiophen-6-ylmethyl ester]",≤ 501
≥ 100000,"N#Cc1c(NC(=O)/C=C/c2cccnc2)sc2c1CC[C@H](COC(=O)N1CCC[C@H](O)C1)C2 [Example 87c, (S)-3-Hydroxy-piperidine-1-carboxylic acid (S)-3-cyano-2-((E)-3-pyridin-3-yl-allanoylamino)-4,5,6,7-tetrahydro-benzo[b]thiophen-6-ylmethyl ester]",≤ 501
≥ 100000,"CC1CCCN1C(=O)OCC1CCc2c(sc(NC(=O)/C=C/c3cccnc3)c2C#N)C1 (stereo not shown) [Example 88, 2-Methylpyrrolidine-1-carboxylic acid 3-cyano-2-((E)-3-pyridin-3-yl-allanoylamino)-4,5,6,7-tetrahydro-benzo[b]thiophen-6-ylmethyl ester]",≤ 501
≥ 100000,"COCC1CCCN1C(=O)OCC1CCc2c(sc(NC(=O)/C=C/c3cccnc3)c2C#N)C1 (stereo not shown) [Example 89, 2-(Methoxymethyl) pyrrolidine-1-carboxylic acid 3-cyano-2-((E)-3-pyridin-3-yl-allanoylamino)-4,5,6,7-tetrahydro-benzo[b]thiophen-6-ylmethyl ester]",≤ 501
≥ 100000,"COC[C@@H]1CCCN1C(=O)OCC1CCc2c(sc(NC(=O)/C=C/c3cccnc3)c2C#N)C1 (stereo partly drawn) [Example 90, 2-(S)-(Methoxymethyl) pyrrolidine-1-carboxylic acid 3-cyano-2-((E)-3-pyridin-3-yl-allanoylamino)-4,5,6,7-tetrahydro-benzo[b]thiophen-6-ylmethyl ester]",≤ 501
≥ 100000,"CCN(C)C(=O)OC1CCc2c(sc(NC(=O)/C=C/c3cccnc3)c2C#N)C1 (stereo not shown) [Example 91, Ethyl-methyl-carbamic acid 3-cyano-2-((E)-3-pyridin-3-yl-allanoylamino)-4,5,6,7-tetrahydro-benzo[b]thiophen-6-yl ester]",≤ 501
≥ 100000,"N#Cc1c(NC(=O)/C=C/c2cccnc2)sc2c1CCC(OC(=O)N1CC=CC1)C2 (stereo not shown) [Example 92, 2,5-Dihydro-pyrrole-1-carboxylic acid 3-cyano-2-((E)-3-pyridin-3-yl-allanoylamino)-4,5,6,7-tetrahydro-benzo[b]thiophen-6-yl ester]",≤ 501
≥ 100000,"CC1CCCN1C(=O)OC1CCc2c(sc(NC(=O)/C=C/c3cccnc3)c2C#N)C1 (stereo not shown) [Example 93, 2-Methylpyrrolidine-1-carboxylic acid 3-cyano-2-((E)-3-pyridin-3-yl-allanoylamino)-4,5,6,7-tetrahydro-benzo[b]thiophen-6-yl ester]",≤ 501

# More lines, now with the values behind:
Compound,IC50 [2] [nM],IC50 [1] [nM]
"CN(C)C(=O)OC[C@H]1CCc2c(sc(NC(=O)/C=C/c3cccnc3)c2C#N)C1 [Example 74a, Dimethyl-carbamic acid (S)-3-cyano-2-((E)-3-pyridin-3-yl-allanoylamino)-4,5,6,7-tetrahydro-benzo[b]thiophen-6-ylmethyl ester]",≥ 100000,≤ 501
"N#Cc1c(NC(=O)/C=C/c2cccnc2)sc2c1CCC(COC(=O)N1CCC(O)C1)C2 (stereo not shown) [Example 75, 3-Hydroxy-pyrrolidine-1-carboxylic acid 3-cyano-2-((E)-3-pyridin-3-yl-allanoylamino)-4,5,6,7-tetrahydro-benzo[b]thiophen-6-ylmethyl ester]",≥ 100000,≤ 501
"N#Cc1c(NC(=O)/C=C/c2cccnc2)sc2c1CCC(OC(=O)N1CC(O)C1)C2 (stereo not shown) [Example 77, 3-Hydroxy-azetidine-1-carboxylic acid 3-cyano-2-((E)-3-pyridin-3-yl-allanoylamino)-4,5,6,7-tetrahydro-benzo[b]thiophen-6-yl ester]",≥ 100000,≤ 501
"CN(C)C(=O)OC1CCc2c(sc(NC(=O)/C=C/c3cccnc3)c2C#N)C1 (stereo not shown) [Example 78, Dimethyl-carbamic acid 3-cyano-2-((E)-3-pyridin-3-yl-allanoylamino)-4,5,6,7-tetrahydro-benzo[b]thiophen-6-yl ester]",≥ 100000,≤ 501
"N#Cc1c(NC(=O)/C=C/c2cccnc2)sc2c1CCC(OC(=O)N1CCC1)C2 (stereo not shown) [Example 80, Azetidine-1-carboxylic acid 3-cyano-2-((E)-3-pyridin-3-yl-allanoylamino)-4,5,6,7-tetrahydro-benzo[b]thiophen-6-yl ester]",≥ 100000,≤ 501
"COC(=O)[C@@H]1CCCN1C(=O)OC1CCc2c(sc(NC(=O)/C=C/c3cccnc3)c2C#N)C1 (stereo partly drawn) [Example 81, 2-(S)-Pyrrolidine-1,2-dicarboxylic acid 1-[3-cyano-2-((E)-3-pyridin-3-yl-allanoylamino)-4,5,6,7-tetrahydro-benzo[b]thiophen-6-yl] ester 2-methyl ester]",≥ 100000,501 to 2000
"N#Cc1c(NC(=O)/C=C/c2cccnc2)sc2c1CCC(COC(=O)N1CCOCC1)C2 (stereo not shown) [Example 84, Morpholine-4-carboxylic acid-3-cyano-2-((E)-3-pyridin-3-yl-allanoylamino)-4,5,6,7-tetrahydro-benzo[b]thiophen-6-ylmethyl ester]",≥ 100000,≤ 501
"CCN(C)C(=O)OCC1CCc2c(sc(NC(=O)/C=C/c3cccnc3)c2C#N)C1 (stereo not shown) [Example 85, Ethyl-methyl-carbamic acid 3-cyano-2-((E)-3-pyridin-3-yl-allanoylamino)-4,5,6,7-tetrahydro-benzo[b]thiophen-6-ylmethyl ester]",≥ 100000,≤ 501
"N#Cc1c(NC(=O)/C=C/c2cccnc2)sc2c1CCC(COC(=O)N1CC=CC1)C2 (stereo not shown) [Example 86, 2,5-Dihydro-pyrrole-1-carboxylic acid 3-cyano-2-((E)-3-pyridin-3-yl-allanoylamino)-4,5,6,7-tetrahydro-benzo[b]thiophen-6-ylmethyl ester]",≥ 100000,≤ 501
"N#Cc1c(NC(=O)/C=C/c2cccnc2)sc2c1CC[C@@H](COC(=O)N1CCC[C@@H](O)C1)C2 [Example 87a, (R)-3-Hydroxy-piperidine-1-carboxylic acid (R)-3-cyano-2-((E)-3-pyridin-3-yl-allanoylamino)-4,5,6,7-tetrahydro-benzo[b]thiophen-6-ylmethylester]",≥ 100000,≤ 501
"N#Cc1c(NC(=O)/C=C/c2cccnc2)sc2c1CC[C@H](COC(=O)N1CCC[C@@H](O)C1)C2 [Example 87b, (R)-3-Hydroxy-piperidine-1-carboxylic acid (S)-3-cyano-2-((E)-3-pyridin-3-yl-allanoylamino)-4,5,6,7-tetrahydro-benzo[b]thiophen-6-ylmethyl ester]",≥ 100000,≤ 501
"N#Cc1c(NC(=O)/C=C/c2cccnc2)sc2c1CC[C@@H](COC(=O)N1CCC[C@H](O)C1)C2 [Example 87d, (S)-3-Hydroxy-piperidine-1-carboxylic acid (R)-3-cyano-2-((E)-3-pyridin-3-yl-allanoylamino)-4,5,6,7-tetrahydro-benzo[b]thiophen-6-ylmethyl ester]",≥ 100000,≤ 501
